This note sets out measurements from patent publication US20240140957A1, “BRIDGED COMPOUNDS AS KRAS G12D INHIBITOR AND DEGRADER AND THE USE THEREOF” (BeiGene Switzerland GmbH, priority 2021, published 2024).

Each structure is given as a SMILES string. Some results are limits rather than exact numbers.

Test [1] has as its system pERK1/2 (THR202/TYR204) in AsPC-1 cells. As to the kind of experiment: pERK Assay (HTRF) in AsPC-1 cells. The test is classed as cell-based. The conditions noted are these: Homo sapiens, ASPC1, 2 h compound treatment. As to the method:
AsPC-1 cell line was used in this study. […] 30000 cells per well were seeded into a 96-well plate and incubated overnight. […] After 2 h compound treatment, cells were lysed, and the pERK1/2 (THR202/TYR204) level in the cell lysates was detected by HTRF kit (Cisbio). In brief, a total of 16 μL of cell lysate from each well of a 96-well plate was transferred to a 384-well white assay plate. Lysate from each well was incubated with 2 μL of Eu3+-cryptate (donor) labeled anti-phospho-ERK1/2 and 2 μL of D2 (acceptor) labeled anti-phospho-ERK1/2 antibodies (Cisbio) overnight in dark at room temperature. When donor and acceptor are in close proximity, excitation of the donor with laser triggers a Fluorescence Resonance Energy Transfer (FRET) towards the acceptor, which in turn fluoresces at 655 nm wavelength. FRET signals were measured using a PHERAstar FSX reader (BMG Labtech).

Test [2] addresses KRAS G12D:SOS1 (Homo sapiens, UniProt P01116, G12D). The test is described as follows: KRAS G12D:SOS1 GDP TR-FRET assay. The test is classed as binding. Conditions: GST-KRAS G12D 37.5 nM, GDP 10 μM, His-SOS1 18 nM. As to the method:
(§1) KRAS:SOS1 GDP TR-FRET Assay
(§2) This assay was used to identify compounds which competitively interact with the binding of KRAS protein to SOS1 in the presence of GDP. […] All protein and reaction solutions were prepared in assay buffer containing DPBS pH7.5, 0.1% BSA, and 0.05% Tween 20. Purified GST-tagged WT KRAS or KRAS G12D protein (37.5 nM final assay concentration) and GDP (Sigma, 10 μM final assay concentration) mixture, a serially diluted compound (top final concentration is 50 μM or 10 uM, 3-fold serially diluted, 10 points) and His-tagged SOS1 protein (18 nM final assay concentration) were added into the assay plates (384 well microplate, black, Corning) sequentially. Plates are incubated at 24° C. for 1 hr. Following the incubation, Mab Anti-GST-Tb cryptate (Cisbio) and […] (Cisbio) were added and further incubated at 24° C. for another 1 hr. The TR-FRET signals (ex337 nm, em665 nm/620 nm) were read on BMG PHERAstar FSX instrument. The inhibition percentage of KRAS protein binding with SOS1 in presence of increasing concentrations of compounds was calculated based on the ratio of fluorescence at 665 nm to that at 620 nm. The IC50 value of each compound was calculated from fitting the data to the four-parameter logistic model by Dotmatics.

Test [3] deals with WT KRAS:SOS1 (Homo sapiens, UniProt P01116). The test is described as follows: KRAS WT:SOS1 GDP TR-FRET assay. Conditions: GST-WT KRAS 37.5 nM, GDP 10 μM, His-SOS1 18 nM. The test is classed as binding. As to the method:
as §1, §2
For orientation: TR-FRET usually uses a lanthanide donor and a delayed reading to cut background.

Test [4] addresses GDP-loaded KRAS G12D (Homo sapiens, UniProt P01116, G12D). The test is described as follows: KRAS G12D Probe Displacement Assay. The test is classed as binding. Conditions: KRAS G12D 0.5 nM, biotinylated probe 2 4 nM; Table 6 letters; read-out: KRAS G12D Probe Displacement Assay IC50 (class).

Chain of WT KRAS:SOS1 (P01116 1-188 isoform P01116-2): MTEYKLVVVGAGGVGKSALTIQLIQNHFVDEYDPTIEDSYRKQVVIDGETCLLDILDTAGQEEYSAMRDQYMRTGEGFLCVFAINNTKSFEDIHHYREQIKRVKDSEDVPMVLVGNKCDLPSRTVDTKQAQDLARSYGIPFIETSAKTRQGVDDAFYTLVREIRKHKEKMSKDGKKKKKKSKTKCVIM
Chain of GDP-loaded KRAS G12D (P01116 1-188 isoform P01116-2 G12D): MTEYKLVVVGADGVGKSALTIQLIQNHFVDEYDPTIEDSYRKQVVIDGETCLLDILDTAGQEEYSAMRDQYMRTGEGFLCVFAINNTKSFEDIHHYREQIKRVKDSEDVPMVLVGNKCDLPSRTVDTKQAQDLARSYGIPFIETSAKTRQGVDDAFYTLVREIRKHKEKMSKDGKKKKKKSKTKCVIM
Chain of KRAS G12D:SOS1 (P01116 1-188 isoform P01116-2 G12D): as above

In the case of `CN(C)CCCOc1nc(N2CCNCC2)c2cc(Cl)c(-c3cc(O)cc4ccccc34)c(F)c2n1` [Example E1, 4-(6-chloro-2-(3-(dimethylamino)propoxy)-8-fluoro-4-(piperazin-1-)quinazolin-7-yl)naphthalen-2-ol], the IC50 in test [1] was above 10000 nM; in test [2] it was 1870 nM; in test [3] it was 26900 nM.
For the molecule `CN(C)C1CN(c2nc(N3CCNCC3)c3cc(Cl)c(-c4cc(O)cc5ccccc45)c(F)c3n2)C1` [Example E2, 4-(6-chloro-2-(3-(dimethylamino)azetidin-1-yl)-8-fluoro-4-(piperazin-1-yl)quinazolin-7-yl)naphthalen-2-ol], the IC50 in test [2] was 4850 nM; in test [3] it was above 50000 nM.
In the case of `C[C@@H](CN1CC(F)(F)C1)Oc1nc(N2CC3CCC(C2)N3)c2cc(Cl)c(-c3ccc(F)c4sc(N)nc34)c(F)c2n1` [Example E32, 4-(4-(3,8-diazabicyclo[3.2.1]octan-3-yl)-6-chloro-2-(((S)-1-(3,3-difluoroazetidin-1-yl)propan-2-yl)oxy)-8-fluoroquinazolin-7-yl)-7-fluorobenzo[d]thiazol-2-amine], the 50% inhibitory concentration (IC50) in test [2] is 81 nM; in test [3] it was above 10000 nM.
As for `Nc1nc2c(-c3c(Cl)cc4c(N5CCNCC5)nc(OCCCN5CCN(CCCOCCC(=O)NCCOCCNC(=O)CCCC[C@@H]6SC[C@@H]7NC(=O)N[C@@H]76)CC5)nc4c3F)ccc(F)c2s1` [Example E56, N-(2-(2-(3-(3-(4-(3-((7-(2-amino-7-fluorobenzo[d]thiazol-4-yl)-6-chloro-8-fluoro-4-(piperazin-1-yl)quinazolin-2-yl)oxy)propyl)piperazin-1-yl)propoxy)propanamido)ethoxy)ethyl)-5-((3 aS, 4S,6aR)-2-oxohexahydro-1H-thieno[3,4-d]imidazol-4-yl)pentanamide], the figures for the concentration for half-maximal inhibition (IC50) in test [2] and in test [3] were 21 nM and 370 nM, respectively.
Turning to `CS(=O)(=O)N1CCN(c2nc(OC[C@@H]3CCCN3CCCOCCC(=O)NCCOCCNC(=O)CCCC[C@@H]3SC[C@@H]4NC(=O)N[C@@H]43)nc3c2CCN(c2cccc4cccc(Cl)c24)C3)C[C@@H]1CC#N` [Example E57, N-(2-(2-(3-(3-((S)-2-(((7-(8-chloronaphthalen-1-yl)-4-((S)-3-(cyanomethyl)-4-(methylsulfonyl)piperazin-1-yl)-5,6,7,8-tetrahydropyrido[3,4-d]pyrimidin-2-yl)oxy)methyl)pyrrolidin-1-yl)propoxy)propanamido)ethoxy)ethyl)-5-((3aS,4S,6aR)-2-oxohexahydro-1H-thieno[3,4-d]imidazol-4-yl)pentanamide], the IC50 was above 10000 nM in test [2] and 130 nM in test [3].
For `CC(=O)N1CC(COc2nc(N3CC4CCC(C3)N4)c3cc(Cl)c(-c4nc(N)cc(C)c4C(F)(F)F)c(F)c3n2)C1` [Example E226, 1-(3-(((7-(6-amino-4-methyl-3-(trifluoromethyl)pyridin-2-yl)-4-(3,8-diazabicyclo[3.2.1]octan-3-yl)-6-chloro-8-fluoroquinazolin-2-yl)oxy)methyl)azetidin-1-yl)ethan-1-one], in test [4], the IC50 is below 50 nM.
Take `Cc1cc(N)nc(-c2c(Cl)cc3c(N4CC5CCC(C4)N5)nc(OCC4(CO)CC(F)C4)nc3c2F)c1C(F)(F)F` (centres unmarked) [Example E227, (1-(((7-(6-amino-4-methyl-3-(trifluoromethyl)pyridin-2-yl)-4-(3,8-diazabicyclo[3.2.1]octan-3-yl)-6-chloro-8-fluoroquinazolin-2-yl)oxy)methyl)-3-fluorocyclobutyl)methanol]: the IC50 in test [4] is below 50 nM.
Consider `Cc1cc(N)nc(-c2c(Cl)cc3c(N4CC5CCC(C4)N5)nc(OCC4CS(=O)(=O)C4)nc3c2F)c1C(F)(F)F` [Example E228, 3-(((7-(6-amino-4-methyl-3-(trifluoromethyl)pyridin-2-yl)-4-(3,8-diazabicyclo[3.2.1]octan-3-yl)-6-chloro-8-fluoroquinazolin-2-yl)oxy)methyl)thietane 1,1-dioxide], for which, in test [4], the IC50 is below 50 nM.
Consider `Cc1cc(N)nc(-c2c(Cl)cc3c(N4CC5CCC(C4)N5)nc(OCC45CCC(CC4)OC5)nc3c2F)c1C(F)(F)F` [Example E229, 6-(2-((2-oxabicyclo[2.2.2]octan-4-yl)methoxy)-4-(3,8-diazabicyclo[3.2.1]octan-3-yl)-6-chloro-8-fluoroquinazolin-7-yl)-4-methyl-5-(trifluoromethyl)pyridin-2-amine], for which the IC50 in test [4] is below 50 nM.
Turning to `Cc1cc(N)nc(-c2c(Cl)cc3c(N4CC5CCC(C4)N5)nc(OCC4(CO)CCOC4)nc3c2F)c1C(F)(F)F` (centres unmarked) [Example E230, (3-(((7-(6-amino-4-methyl-3-(trifluoromethyl)pyridin-2-yl)-4-(3,8-diazabicyclo[3.2.1]octan-3-yl)-6-chloro-8-fluoroquinazolin-2-yl)oxy)methyl)tetrahydrofuran-3-yl)methanol], the half-maximal inhibitory concentration (IC50) in test [4] was below 50 nM.
Consider `Cc1cc(N)nc(-c2c(Cl)cc3c(N4CC5CCC(C4)N5)nc(OCC4C5COCC54)nc3c2F)c1C(F)(F)F` (centres unmarked) [Example E231, 6-(2-((3-oxabicyclo[3.1.0]hexan-6-yl)methoxy)-4-(3,8-diazabicyclo[3.2.1]octan-3-yl)-6-chloro-8-fluoroquinazolin-7-yl)-4-methyl-5-(trifluoromethyl)pyridin-2-amine], for which the IC50 in test [4] was 100 to 1000 nM.
The same measure, in the same setting: with `CC(=O)N1CCC(COc2nc(N3CC4CCC(C3)N4)c3cc(Cl)c(-c4nc(N)cc(C)c4C(F)(F)F)c(F)c3n2)C1` (centres unmarked) [Example E232, 1-(3-(((7-(6-amino-4-methyl-3-(trifluoromethyl)pyridin-2-yl)-4-(3,8-diazabicyclo[3.2.1]octan-3-yl)-6-chloro-8-fluoroquinazolin-2-yl)oxy)methyl)pyrrolidin-1-yl)ethan-1-one] the figure was below 50 nM; with `COC(C)(CO)COc1nc(N2CC3CCC(C2)N3)c2cc(Cl)c(-c3nc(N)cc(C)c3C(F)(F)F)c(F)c2n1` (centres unmarked) [Example E233, 3-((7-(6-amino-4-methyl-3-(trifluoromethyl)pyridin-2-yl)-4-(3,8-diazabicyclo[3.2.1]octan-3-yl)-6-chloro-8-fluoroquinazolin-2-yl)oxy)-2-methoxy-2-methyl propan-1-ol], below 50 nM.
For `CC(=O)N1CCCC(COc2nc(N3CC4CCC(C3)N4)c3cc(Cl)c(-c4nc(N)cc(C)c4C(F)(F)F)c(F)c3n2)C1` (centres unmarked) [Example E234, 1-(3-(((7-(6-amino-4-methyl-3-(trifluoromethyl)pyridine-2-yl)-4-(3,8-diazabicyclo[3.2.1]octan-3-yl)-6-chloro-8-fluoroquinazolin-2-yl)oxy)methyl)piperidin-1-yl)ethan-1-one], the IC50 in test [4] was 50 to 100 nM.
On to `CC12CC(COc3nc(N4CC5CCC(C4)N5)c4cc(C(F)(F)F)c(-c5ccc(F)c6sc(N)c(C#N)c56)c(F)c4n3)(CO1)C2` [Example E235, 4-(4-(3,8-diazabicyclo[3.2.1]octan-3-yl)-8-fluoro-2-((1-methyl-2-oxabicyclo[2.1.1]hexan-4-yl)methoxy)-6-(trifluoromethyl)quinazolin-7-yl)-2-amino-7-fluoro benzo[b]thiophene-3-carbonitrile], for which the IC50 in test [4] is below 50 nM.
As for `N#Cc1c(N)sc2c(F)ccc(-c3c(C(F)(F)F)cc4c(N5CC6CCC(C5)N6)nc(OCC56COC(C5)C6)nc4c3F)c12` [Example E236, 4-(2-((2-oxabicyclo[2.1.1]hexan-4-yl)methoxy)-4-(3,8-diazabicyclo[3.2.1]octan-3-yl)-8-fluoro-6-(trifluoromethyl)quinazolin-7-yl)-2-amino-7-fluorobenzo [b]thiophene-3-carbonitrile], in test [4], the IC50 was below 50 nM.
With `Nc1cc(-c2cc3nc(OC[C@@]45CCCN4C[C@H](F)C5)nc(N4CC5CCC(C4)N5)c3cc2Cl)c(C(F)(F)F)c(C(F)(F)F)c1` [Example E237, 3-(4-(3,8-diazabicyclo[3.2.1]octan-3-yl)-6-chloro-2-(((2R,7aS)-2-fluorotetrahydro-1H-pyrrolizin-7a(5H)-yl)methoxy)quinazolin-7-yl)-4,5-bis (trifluoromethyl) aniline], the concentration for half-maximal inhibition (IC50) in test [4] is below 50 nM.

As usually defined, the IC50 is the concentration that inhibits the measured activity by half.
